Source: patent US7494992B2, “Antiparasitic terpene alkaloids” (Pfizer Inc., priority 2003, dated 2009)

Target: fly head P2 membranes
Experiment: radiometric assay: displacement of 3H-dihydro-CJ-12662 from fly head P2 membranes (Ki; also single-concentration high throughput screen, % inhibition)
Design: species or system Lucilia sericata
Conditions: radioligand binding to fly head P2 membranes; value used to calculate Ki values
Experimental: A further aspect of the invention is a novel binding assay which is used to assess the potential antiparasitic activity of these compounds by measuring how tightly they bind to membranes purified from parasite homogenates. The affinity is calculated according to how readily the compounds of the present invention displace a radiolabeled, reduced analogue of (1S,2R,4aS,5R,8R,8aR)-2-(acetyloxy)-8a-hydroxy-3,8-dimethyl-5-(1-methylethenyl)-1,2,4a,5,6,7,8,8a-octahydronaphthalen-1-yl(2S,3aR,9bR)-6-chloro-9b-hydroxy-5-methyl-1,2,3,3a,5,9b-hexahydropyrrolo[2,3-c][2,1]benzoxazine-2-carboxylate from these membranes.
The in vitro assay for measurement of compounds which displace ^3H-dihydro-(1S,2R,4aS,5R,8R,8aR)-2-(acetyloxy)-8a-hydroxy-3,8-dimethyl-5-(1-methylethenyl)-1,2,4a,5,6,7,8,8a-octahydronaphthalen-1-yl(2S,3aR,9bR)-6-chloro-9b-hydroxy-5-methyl-1,2,3,3a,5,9b-hexahydropyrrolo[2,3-c][2,1]benzoxazine-2-carboxylate from fly head P2 membranes represents another aspect of the invention and was performed as follows. […]

Substance: ^3H-dihydro-(1S,2R,4aS,5R,8R,8aR)-2-(acetyloxy)-8a-hydroxy-3,8-dimethyl-5-(1-methylethenyl)-1,2,4a,5,6,7,8,8a-octahydronaphthalen-1-yl(2S,3aR,9bR)-6-chloro-9b-hydroxy-5-methyl-1,2,3,3a,5,9b-hexahydropyrrolo[2,3-c][2,1]benzoxazine-2-carboxylate [^3H-dihydro-CJ-12662]
- Kd: 7 nM
